The results in this text go back to US9034859B2, “Sulfated oxysterol and oxysterol sulfation by hydroxysterol sulfotransferase promote lipid homeostasis and liver proliferation” (Virginia Commonwealth University, priority 2011, dated 2015).

The nature of the data set: Long-term treatment of HFD-fed mice: body mass, liver weight, plasma lipids, liver function. The format is in vivo, C57BL/6J female mice. As to the method: Animal studies were approved by Institutional Animal Care and Use Committee of McGuire Veterans Affairs Medical Center and were conducted in accordance with the Declaration of Helsinki, the Guide for the Care and Use of Laboratory Animals, and all applicable regulations. To examine the effect of 25HC3S on diet-induced lipid accumulation in sera and liver, 8-week-old female C57BL/6J mice (Charles River, Wilmington, Mass.) were randomly assigned to three groups: the first control group was fed a chow diet; the high fat diet (HFD) group was fed a HFD (Harlan Teklad, Madison, Wis.) containing 42% kcal from fat, 43% kcal from carbohydrate, 15% kcal from protein and 0.2% cholesterol; and the high cholesterol diet (HCD) group was fed a 2% cholesterol diet with 18% kcal from fat, 58% kcal from carbohydrate and 24% kcal from protein for 10 weeks, respectively. All mice were housed under identical conditions in an aseptic facility and given free access to water and food. At the end of each period, the mice were intraperitoneally injected with vehicle solution (ethanol/PBS; Vehicle), 25HC (25 mg/kg), or 25HC3S (25 mg/kg) for 2 times and fasted over night for acute treatment (n=15-17 for each group) or once every three days for 6 weeks (n=16 for each group) and fasted 5 hrs for long-term treatment; and blood samples were collected. Serum triglyceride, total cholesterol, high density lipoprotein-cholesterol, glucose, alkaline phosphatase (ALK), alanine aminotransferase (ALT), and aspartate aminotransferase (AST) were measured using standard enzymatic techniques in the clinical laboratory at McGuire Veterans Affairs Medical Center. Lipoprotein profiles in sera were analyzed by HPLC as following described.

Each structure is given as a SMILES string.

Regarding `CC(CCCC(C)(C)O)C1CCC2C3CC=C4CC(OS(=O)(=O)O)CCC4(C)C3CCC12C` (centres unmarked) [25HC3S, 25-hydroxycholesterol-3-sulfate], the liver weight result (6 weeks injection, fasted 5 hrs) is on record as “significantly decreased”. Besides, under “i.p. once every three days, 6 weeks, control kept increasing”, the body mass result is “stopped increasing body mass”. Besides, under “long-term treatment”, the “serum ALK, ALT and AST levels” value is “significantly reduced”. For the same compound, under “long-term treatment (data not shown)”, the plasma triglyceride level entry is listed as “did not significantly decrease”. In addition, the plasma cholesterol level entry (long-term treatment, compared to vehicle (data not shown)) was “significantly decreased”.
